How the values were obtained:
[1] = Drug level in ICR mouse bile at 150 mg/kg, po after 2.5 hrs by LC-MS/MS method; format: ADME, organism-based; set-up: dose 150 mg/kg, route oral; conditions: read-out: Drug uptake
[2] = Drug level in ICR mouse plasma at 150 mg/kg, po after 3.5 hrs by LC-MS/MS method; format: ADME, organism-based; set-up: dose 150 mg/kg, route oral
[3] = Drug level in ICR mouse gall bladder at 150 mg/kg, po after 2 hrs by LC-MS/MS method; format: ADME, organism-based; set-up: dose 150 mg/kg, route oral; conditions: in vivo
[4] = Drug level in ICR mouse bile at 150 mg/kg, po after 2 hrs by LC-MS/MS method; format: ADME, organism-based; set-up: dose 150 mg/kg, route oral; conditions: read-out: Drug uptake
[5] = in vitro; conditions: human, Caco-2
[6] = Drug level in ICR mouse bile at 150 mg/kg, po after 3.5 hrs by LC-MS/MS method; format: ADME, organism-based; set-up: dose 150 mg/kg, route oral; conditions: read-out: Drug uptake
[7] = in vitro; conditions: human, Caco-2; remark: listed apart in the source
[8] = in vitro; conditions: human, Caco-2; remark: listed apart in the source
[9] = in vitro; conditions: human, Caco-2; remark: listed apart in the source
[10] = Drug level in ICR mouse gall bladder at 150 mg/kg, po after 2.5 hrs by LC-MS/MS method; format: ADME, organism-based; set-up: dose 150 mg/kg, route oral; conditions: in vivo
[11] = Drug level in ICR mouse plasma at 150 mg/kg, po after 2 hrs by LC-MS/MS method; format: ADME, organism-based; set-up: dose 150 mg/kg, route oral
[12] = tested on: Rattus norvegicus; experiment: Drug level in Sprague-Dawley rat at 20 mg/kg, po after 15 mins to 24 hrs by LC-MS/MS method; format: ADME, organism-based; set-up: dose 20 mg/kg, route oral; conditions: in vivo
[13] = Drug level in ICR mouse plasma at 150 mg/kg, po after 2.5 hrs by LC-MS/MS method; format: ADME, organism-based; set-up: dose 150 mg/kg, route oral
[14] = Drug metabolism in ICR mouse gall bladder assessed as 3-(2,5-Dichloro-4-((3-(4-cyclopropyl-1,2,3,4-tetrahydroquinoxaline-1-carbonyl)pyridin-4-yl)oxy)phenyl)propanoic acid level at 150 mg/kg, po after 4 hrs by LC-MS/MS method; format: ADME, organism-based; set-up: dose 150 mg/kg, route oral; conditions: in vivo
[15] = Drug level in ICR mouse gall bladder at 150 mg/kg, po after 4 hrs by LC-MS/MS method; format: ADME, organism-based; set-up: dose 150 mg/kg, route oral; conditions: in vivo
[16] = tested on: Rattus norvegicus; experiment: Drug metabolism in Sprague-Dawley rat assessed as 3-(2,5-Dichloro-4-((3-(4-cyclopropyl-1,2,3,4-tetrahydroquinoxaline-1-carbonyl)pyridin-4-yl)oxy)phenyl)propanoic acid level at 20 mg/kg, po after 15 mins to 24 hrs by LC-MS/MS method; format: ADME, organism-based; set-up: dose 20 mg/kg, route oral; conditions: in vivo
[17] = Drug level in ICR mouse gall bladder at 150 mg/kg, po after 3.5 hrs by LC-MS/MS method; format: ADME, organism-based; set-up: dose 150 mg/kg, route oral; conditions: in vivo
[18] = tested on: Rattus norvegicus; experiment: Tmax in Sprague-Dawley rat assessed as 3-(2,5-Dichloro-4-((3-(4-cyclopropyl-1,2,3,4-tetrahydroquinoxaline-1-carbonyl)pyridin-4-yl)oxy)phenyl)propanoic acid level at 5 mg/kg, po by LC-MS/MS method; format: ADME, organism-based; set-up: dose 5 mg/kg, route oral; conditions: in vivo
[19] = Tmax in Sprague-Dawley rat at 5 mg/kg, po by LC-MS/MS method; format: ADME, organism-based; set-up: dose 5 mg/kg, route oral; conditions: in vivo
[20] = AUC (0 to infinity) in Sprague-Dawley rat at 5 mg/kg, po by LC-MS/MS method; format: ADME, organism-based; set-up: time infinity, dose 5 mg/kg, route oral; conditions: plasma
[21] = Cmax in Sprague-Dawley rat at 5 mg/kg, po by LC-MS/MS method; format: ADME, organism-based; set-up: dose 5 mg/kg, route oral; conditions: in vivo
[22] = Half life in Sprague-Dawley rat at 5 mg/kg, po by LC-MS/MS method; format: ADME, organism-based; set-up: dose 5 mg/kg, route oral; conditions: in vivo
[23] = Mean residence time in Sprague-Dawley rat at 5 mg/kg, po by LC-MS/MS method; format: ADME, organism-based; set-up: dose 5 mg/kg, route oral; conditions: in vivo
[24] = tested on: Rattus norvegicus; experiment: Mean residence time in Sprague-Dawley rat assessed as 3-(2,5-Dichloro-4-((3-(4-cyclopropyl-1,2,3,4-tetrahydroquinoxaline-1-carbonyl)pyridin-4-yl)oxy)phenyl)propanoic acid level at 5 mg/kg, po by LC-MS/MS method; format: ADME, organism-based; set-up: dose 5 mg/kg, route oral; conditions: in vivo
[25] = tested on: Rattus norvegicus; experiment: Half life in Sprague-Dawley rat assessed as 3-(2,5-Dichloro-4-((3-(4-cyclopropyl-1,2,3,4-tetrahydroquinoxaline-1-carbonyl)pyridin-4-yl)oxy)phenyl)propanoic acid level at 5 mg/kg, po by LC-MS/MS method; format: ADME, organism-based; set-up: dose 5 mg/kg, route oral; conditions: in vivo
[26] = AUC (0 to t) in Sprague-Dawley rat at 5 mg/kg, po by LC-MS/MS method; format: ADME, organism-based; set-up: dose 5 mg/kg, route oral; conditions: plasma
[27] = tested on: Rattus norvegicus; experiment: AUC (0 to t) in Sprague-Dawley rat assessed as 3-(2,5-Dichloro-4-((3-(4-cyclopropyl-1,2,3,4-tetrahydroquinoxaline-1-carbonyl)pyridin-4-yl)oxy)phenyl)propanoic acid level at 5 mg/kg, po by LC-MS/MS method; format: ADME, organism-based, Plasma; set-up: dose 5 mg/kg, route oral; conditions: in vivo
[28] = tested on: Rattus norvegicus; experiment: AUC (0 to infinity) in Sprague-Dawley rat assessed as 3-(2,5-Dichloro-4-((3-(4-cyclopropyl-1,2,3,4-tetrahydroquinoxaline-1-carbonyl)pyridin-4-yl)oxy)phenyl)propanoic acid level at 5 mg/kg, po by LC-MS/MS method; format: ADME, organism-based, Plasma; set-up: time infinity, dose 5 mg/kg, route oral; conditions: in vivo
[29] = tested on: Rattus norvegicus; experiment: Cmax in Sprague-Dawley rat assessed as 3-(2,5-Dichloro-4-((3-(4-cyclopropyl-1,2,3,4-tetrahydroquinoxaline-1-carbonyl)pyridin-4-yl)oxy)phenyl)propanoic acid level at 5 mg/kg, po by LC-MS/MS method; format: ADME, organism-based; set-up: dose 5 mg/kg, route oral; conditions: in vivo

O=C(CCc1cc(Cl)c(Oc2ccncc2C(=O)N2CCN(C3CC3)c3ccccc32)cc1Cl)NCCOCCOCCOCCOCCOCCOCCOCCOCCNC(=O)CCc1cc(Cl)c(Oc2ccncc2C(=O)N2CCN(C3CC3)c3ccccc32)cc1Cl
concentration at 2.5 h [1]: 3.5 nM | concentration at 3.5 h [2]: 2.9 nM | Drug uptake [3]: Not Active | concentration at 2 h [4]: 3.6 nM | recovery at 20 µM [5]: 91.2% | concentration at 3.5 h [6]: 3.8 nM | Papp A→B at 20 µM [7]: 0.04 ×10⁻⁶ cm/s | Papp B→A at 20 µM [8]: 2.24 ×10⁻⁶ cm/s | recovery at 20 µM [9]: 99.5% | Drug uptake [10]: Not Active | concentration at 2 h [11]: 4.4 nM | Drug uptake [12]: < 3 ng/mL | concentration at 2.5 h [13]: 6.9 nM | Drug metabolism [14]: metabolite_notdetected | Drug uptake [15]: < 3 ng | Drug metabolism [16]: metabolite_notdetected | Drug uptake [17]: Not Active

O=C(c1cnccc1Oc1cc(Cl)ccc1Cl)N1CCN(C2CC2)c2ccccc21
recovery at 20 µM [5]: 69.4% | Papp A→B at 20 µM [7]: 6.75 ×10⁻⁶ cm/s | Papp B→A at 20 µM [8]: 5.58 ×10⁻⁶ cm/s | recovery at 20 µM [9]: 46.8%

O=C(O)CNC(=O)CCc1cc(Cl)c(Oc2ccncc2C(=O)N2CCN(C3CC3)c3ccccc32)cc1Cl
Tmax [18]: 3.5 h | Tmax [19]: 0.44 h | AUC(0-inf) [20]: 39.7 ng·h/mL | Cmax [21]: 13.5 ng/mL | half-life [22]: 1.56 h | MRT [23]: 2.37 h | MRT [24]: 5.47 h | t1/2 [25]: 1.77 h | AUC(0-t) [26]: 23.9 ng·h/mL | AUCt [27]: 84.9 ng·h/mL | AUC [28]: 241 ng·h/mL | Cmax [29]: 15.5 ng/mL

C[C@H]1O[C@@H](O[C@H]2[C@@H](O)C[C@H](O[C@H]3[C@@H](O)C[C@H](O[C@H]4CC[C@@]5(C)[C@H](CC[C@@H]6[C@@H]5C[C@@H](O)[C@]5(C)[C@@H](C7=CC(=O)OC7)CC[C@]65O)C4)O[C@@H]3C)O[C@@H]2C)C[C@H](O)[C@@H]1O [DIGOXIN]
recovery at 20 µM [5]: 95.8% | Papp A→B at 20 µM [7]: 0.1 ×10⁻⁶ cm/s | Papp B→A at 20 µM [8]: 15.8 ×10⁻⁶ cm/s | recovery at 20 µM [9]: 101%

— ChEMBL document CHEMBL3421628, “Discovery of Intestinal Targeted TGR5 Agonists for the Treatment of Type 2 Diabetes” (J Med Chem, 2015)
